Results taken from patent publication US8895032B2, “Dendritic nano-antioxidants” (Central Michigan University, priority 2009, dated 2014).

Experiments:
[1] = test system: Chinese hamster ovary (CHO-K1) cells; assay: Cell toxicity, MTT; format: cell-based; details: 3.1-50 μM, over 5 days
Procedure: Data on cell toxicity of compound 4 and compound 5 were obtained with Chinese hamster ovary (CHO) cells using 3-(4,5-di-methylthizol-2-yl)-2,5 diphenyltetrazolium bromide (MTT). Chinese Hamster Ovary (CHO-K1) cells were cultured in F-12K medium supplemented with 10% fetal bovine serum. The cells (3×10^5/ml) were seeded in 100 μL volumes in 96 well culture plates and incubated with the solvent control (DMSO, 0.3%), compound 4 or compound 5 at 3.1, 6.2, 12.5, 25, or 50 μM for 1, 3, or 5 days. Two hours prior to experimental termination, 20 μL of a 5 mg/mL MTT solution in 0.01 M PBS was added to each well. Plates were centrifuged at 450×g for 10 min and supernatant was removed. The resultant formazan crystals were dissolved in 100 μL DMSO and mixed. Absorbance was measured using a Biolog microplate reader (Biotek Instruments) at dual wavelengths, 590 and 650 nm. Percent control response was calculated as follows: (absorbance of treatment/absorbance of control)×100. All experiments were performed in triplicate and repeated. The data were analyzed using Systat 12 for windows. Multiple groups were compared using a one-way analysis of variance (ANOVA) and a Tukey test for mean separation. A p value<0.05 was considered statistically significant.

DPPH radical assay = details: read-out: DPPH IC50 at 120 min; Example 15
Procedure: The DPPH assay was one of three electron transfer (ET) assays used to determine the antioxidant potential of compound 1 (described in Example 6) in comparison to its monomeric counterpart (syringaldehyde) as well as popular antioxidants. In an ET assay, an antioxidant donates electron(s) to a molecular probe, thus reducing it. From the assay, thermodynamic conversion of antioxidant to antioxidant radical (oxidation) is measured during a fixed time period.
The reduction of DPPH radical was determined for ascorbic acid, Trolox, syringaldehyde, and the compound 1 described in Example 6 as previously reported (Brand-Williams, et al. Lebensm.-Wiss U.-Technol. 1995, 28, 25-30, incorporated herein by reference in its entirety). In the DPPH assay, DPPH• radical was reduced by the antioxidant in methanol (Brand-Williams, et al. Lebensm.-Wiss U.-Technol. 1995, 28, 25-30, incorporated herein by reference in its entirety). […] The DPPH reagent was made in methanol. Antioxidant sample (10 μL) was added to 1.0 mL of reagent and the absorbance was monitored at 515 nm until a plateau was reached. Antioxidant concentrations were 50 μM syringaldehyde, 12.5 μM Trolox and ascorbic acid, and 5 μM compound 1. All samples were made in methanol and run in triplicates at room temperature.
The DPPH• scavenging capacity of each antioxidant was evaluated from the plot of the percentage DPPH• remaining when the kinetics reached a steady state as a function of the molar ratios of antioxidant to DPPH•. […] Using the curve, EC50 (the amount of antioxidant necessary to decrease the initial DPPH• concentration by 50%), antiradical power (1/EC50, ability to reduce the DPPH•), reaction stoichiometry (EC50×2, the concentration of antioxidant required to reduce 100% of DPPH• radical), and the number of reduced DPPH• per antioxidant molecule (1/stoichiometry) for each antioxidant were calculated as previously described (Brand-Williams, et al. Lebensm.-Wiss U.-Technol. 1995, 28, 25-30, incorporated herein by reference in its entirety) and are depicted in Table 1.
Antioxidant capacity of the compounds was assessed by the DPPH assay (Brand-Williams, et al. Lebensm. Wiss. Technol. 1995, 28, 25, incorporated herein by reference in its entirety). […] In FIG. 22, control with methanol is (X, dashed); compound 1 is (□), compound 2 is (•), compound 3 is (◯), and Trolox (Δ). All antioxidant concentrations were 5 μM.
The free-radical scavenging ability of the antioxidants was evaluated by the DPPH assay, as described above in Example 7.

Human LDL = assay: Protection of LDL from AAPH oxidation (agarose gel electrophoresis); format: biochemical; details: 21 h, 37° C.
Excerpt: The antioxidant activity of compounds 1, 2, and 3 towards biomolecules was examined by studying their ability to protect LDL, fatty acid, and DNA from free radicals. For LDL, AAPH was used to induce free radical damage. AAPH was used instead of copper (Cu^2) ion for LDL oxidation so that the free radical scavenging activity of the antioxidants could be measured without any pro-oxidant interference caused by metal ions (Salah, N. et al. Arch. Biochem. Biophys. 1995, 322, 339, incorporated herein by reference in its entirety). All solutions were made in ultra-pure water.
Protection of LDL from AAPH free radicals by the antioxidant decreased the anodic shift in a dose-dependent manner (FIG. 23). […] The increased hydrophobicity of compound 3 may be partly responsible for its improved LDL protection over compound 2.
The antioxidant activity of the antioxidants towards biomolecules was examined by studying their ability to protect LDL, lysozyme, and DNA from free radicals. For LDL, AAPH was used to induce free radical damage. AAPH was used instead of Cu^2+ for LDL oxidation so that the free radical scavenging activity of the antioxidants could be measured without any pro-oxidant interference caused by metal ions. The oxidation of human low-density lipoprotein was used as a model for evaluating the ability of the G1 dendrimers as chain-breaking antioxidants for lipid. Oxidation of LDL leads to changes in both the lipid and the protein moieties of the lipoprotein particle. Lipid peroxidation in LDL has been evaluated by a variety of methods. Due to the complexity of events that occur in lipoprotein oxidation, the electrophoretic migration pattern of oxidized LDL is one of the best methods to evaluate the extent of lipoprotein oxidation. LDL was incubated with 20 mM AAPH and increasing concentrations of the G1 dendrimers (0-37 μM in PBS) for 21 h at 37° C. The mixture was then subjected to agarose gel electrophoresis using the Ciba Corning Clinical Electrophoresis System. The agarose gel was stained with Fat Red 7B. In FIG. 30A (top), lane 1 is native LDL, and lanes 2-8 are AAPH-oxidized LDL with 0, 37, 18.5, 9, 4.5, 2 and 1 μM compound 4, respectively. In FIG. 30B (bottom), lane 1 is native LDL, and lanes 2-8 are AAPH-oxidized LDL with 0, 37, 18.5, 9, 4.5, 2 and 1 μM quercetin or Trolox, respectively.

plasmid DNA pBR 322 = assay: Protection of plasmid DNA from AAPH damage (agarose electrophoresis); format: biochemical; details: 10 mM AAPH, 37° C., 4 h; for DNA protection: 5 μM antioxidant
Procedure: The effectiveness of the three compounds to protect DNA from AAPH damage was also determined. The plasmid DNA pBR 322 was incubated with AAPH (final concentration 10 mM) at 37° C. for 4 h with or without antioxidants (final concentrations, 0.35-45 μM), after which the samples were subjected to agarose electrophoresis (Sakihama, Y., et al. Toxicology 2002, 177, 67, incorporated herein by reference in its entirety). […] In the absence of AAPH, pBR 322 was mostly in its supercoiled (S) form (small amount of open circular, O, form was also visible, lane 1 FIG. 25). After reaction with AAPH, the DNA was transformed almost entirely into its open circular form (lane 2, FIG. 25). […] No protection was obtained for both compound 1 and quercetin below 5 μM (lanes 7-10, FIG. 25). […] Compound 3 as well as Trolox were ineffective at all concentrations used in the experiment (0.35-45 μM).
Protection of DNA from free radical damage by the antioxidant dendrimers (compounds 4, 5, and 1) was also evaluated. Plasmid DNA (pBR 322) samples, were incubated with AAPH (final concentration 10 mM) at 37° C. for 4 h with antioxidants (final concentrations, 0.35-45 μM) and subjected to agarose electrophoresis. […] The native DNA was mostly in its supercoiled (S) form (small amount of open circular, O, form was also visible, lane 1, FIG. 31). In the presence of AAPH, the DNA was transformed almost entirely into its O form (lane 2, FIG. 31). […] Negligible DNA protection was afforded by all three dendrimers at ≦2.5 μM (lanes 7-10, FIG. 31). Under similar conditions, Trolox as well as the starting materials for dendrimer synthesis were ineffective at all concentrations.

| Compound | CHO cell viability (MTT) [1] | IC50 (DPPH radical assay) | protection of LDL against free radical damage (Human LDL; 15 μM and 30 μM, 20 mM AAPH) | protection of LDL at lower concentrations (Human LDL; lanes 5-8, 20 mM AAPH) | DNA protection (plasmid DNA pBR 322) | DNA protection (S band intensity) (plasmid DNA pBR 322; 11-45 μM antioxidant) | only concentration effective in protecting LDL (Human LDL; 20 mM AAPH) |
| --- | --- | --- | --- | --- | --- | --- | --- |
| COc1cc(CN(CCN(CCN(Cc2cc(OC)c(O)c(OC)c2)Cc2cc(OC)c(O)c(OC)c2)CCN(Cc2cc(OC)c(O)c(OC)c2)Cc2cc(OC)c(O)c(OC)c2)Cc2cc(OC)c(O)c(OC)c2)cc(OC)c1O [Compound 4] | did not show any reduction in cell viability | 2000 nM | fully protected | ineffective | Some protection | well protected | – |
| COc1cc(CN(CCN(CCN(Cc2ccc(O)c(OC)c2)Cc2ccc(O)c(OC)c2)CCN(Cc2ccc(O)c(OC)c2)Cc2ccc(O)c(OC)c2)Cc2ccc(O)c(OC)c2)ccc1O [Compound 5] | did not show any reduction in cell viability | 2000 nM | – | – | Some protection | – | 30 µM |
